In PubChem BioAssay AID743417 (Broad Institute, 2014):
Results filed as inconclusive are left out. Activity calls are given as the source filed them.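 Rule for the calls: active = compounds lowering the luciferase signal with a fitted half-maximal dose at most twice their top valid dose (cut at about 30 µM in these data); inconclusive = flat fits with moderate signal loss, or poor fits; inactive = the rest.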

tested on: Clone20 osteoblast Shn3 3'UTR firefly luciferase, 24 h; assay: Shn3 3'UTR reporter inhibitors, dose response, cell-based, Clone20 osteoblasts, luminescence, dry powder, set 2 (AID 743417)

Q: How did the AC50 turn out when `CCN(c1ccccc1)S(=O)(=O)c1ccc(Cl)c(NC(=O)CN(C)Cc2cccc(F)c2)c1` was run?
A: Its AC50 is 8780 nM.

Q: For `CN(C)c1ccc(C=c2c3cc([N+](=O)[O-])ccc3n3c2cc(-c2ccccc2)[n+]3C)cc1`, which AC50 is on record?
A: Its AC50 is 3300 nM.

Q: With `O=C(OCn1ncc(Cl)c(Cl)c1=O)c1ccccc1Cl` as the compound, how does the AC50 read?
A: The AC50 was 3560 nM.

Q: How did the AC50 turn out when `Cc1ccc(CS(=O)(=O)c2ncc(Cl)c(C(=O)Nc3nnc(C(C)C)s3)n2)cc1` was run?
A: Its AC50 is 1520 nM.

Q: How did the AC50 turn out when `O=C(Nc1nc(-c2ccccn2)cs1)c1ccc(Br)s1` was run?
A: Its AC50 is 1000 nM.

Q: `Cc1cc(NNC(=O)c2cccc(C(F)(F)F)c2)nc2c1c(C)nn2C` was tested. Which AC50 did it give?
A: The AC50 was 2430 nM.

Q: Which AC50 does the source give for `Cc1ccc(-n2c(Cl)c(Cl)nc(Cl)c2=O)cc1` here?
A: Its AC50 is 1770 nM.

Q: With `O=C1CSc2ccc(C(=O)Nc3cccc(S(=O)(=O)Nc4ccc(Br)cc4)c3)cc2N1` as the compound, how does the AC50 read?
A: The AC50 was 3080 nM.

Q: With `Cc1cccc(Oc2cc(NC(=O)c3ccccc3)cc([N+](=O)[O-])c2)c1` as the compound, how does the AC50 read?
A: The AC50 was 3090 nM.

Q: How did the AC50 turn out when `CCCN1C(=O)S/C(=C\c2ccc(N3CCOCC3)o2)C1=O` was run?
A: Its AC50 is 6370 nM.

Q: With `Cn1c2c(c(=O)n(C)c1=O)C(C(F)(F)F)(C(F)(F)F)N=C(c1ccc(Cl)cc1)N2` as the compound, how does the AC50 read?
A: The AC50 was 1470 nM.

Q: How did the AC50 turn out when `CC(C)=CCc1cc([C@@H]2COc3c(ccc4c3C=CC(C)(C)O4)C2)c(O)cc1O` was run?
A: Its AC50 is 7540 nM.

Q: How did the AC50 turn out when `CN1CCN(Cc2nc3ccccc3c(=O)n2Cc2nc(-c3ccc4ccccc4c3)cs2)CC1` was run?
A: The AC50 was 11000 nM.

Q: With `O=c1cc(-c2ccc(O)cc2)oc2ccc3ccccc3c12` as the compound, how does the AC50 read?
A: The AC50 was 5410 nM.

Q: For `CCOc1cc(/C=C2\C(=O)ON=C2C)ccc1OCc1ccccc1`, which AC50 is on record?
A: The AC50 was 10400 nM.

Q: For `CCCCN1CC(COCc2ccccc2)Oc2cccc(Oc3ccc(C)cc3)c2S1(=O)=O` (stereo not given), which AC50 is on record?
A: Its AC50 is 10700 nM.

Q: Which AC50 does the source give for `COc1ccc(CC(N)c2csc(NC(=O)Nc3cccc(C(F)(F)F)c3)n2)cc1` (stereo not given) here?
A: Its AC50 is 8400 nM.

Q: For `Cc1ccc(C(=O)/C=C/c2ccc(-c3ccc(C)cc3)o2)cc1`, which AC50 is on record?
A: Its AC50 is 2790 nM.

Q: For `Cc1cccc(Nc2nc(NCc3ccco3)c3ccccc3n2)c1`, which AC50 is on record?
A: The AC50 was 2050 nM.

Q: Which AC50 does the source give for `COc1ccc(OC)c(NC(=O)COC(=O)c2c3c(nc4ccccc24)CCCC3)c1` here?
A: Its AC50 is 8670 nM.

Q: `CS(=O)(=O)c1nc(-c2ccccc2)cc(C(F)(F)F)n1` was tested. Which AC50 did it give?
A: The AC50 was 1530 nM.

Q: For `CCC(CC)CN1C(N(C)C)=NC[C@@H]1CC(C)C`, which AC50 is on record?
A: Its AC50 is 717 nM.

Q: For `NS(=O)(=O)c1ccc(CCNCc2cc(Br)ccc2OCc2ccccc2)cc1`, which AC50 is on record?
A: The AC50 was 2920 nM.

Q: `CSc1cccc(NS(=O)(=O)c2ccc3c(c2)CCN3C(C)=O)c1` was tested. Which AC50 did it give?
A: The AC50 was 1490 nM.

Q: `COc1ccc(OC)c(/C=C/C(=O)N2C(=O)c3cccc(N)c3C2=O)c1` was tested. Which AC50 did it give?
A: Its AC50 is 3250 nM.

Q: With `COC(=O)c1ccc(NC(=O)c2nc(S(=O)(=O)Cc3cccc(C)c3)ncc2Cl)cc1` as the compound, how does the AC50 read?
A: Its AC50 is 1350 nM.

Q: Which AC50 does the source give for `Cc1ccc([C@@H]2CC(=O)[C@@H]3CN(S(=O)(=O)c4ccccc4C)[C@H](c4ccc(Cl)cc4)C[C@@H]3N2S(=O)(=O)c2ccc(C)cc2)cc1` here?
A: Its AC50 is 361 nM.

Q: For `CN1CCN(C(c2ccc(Br)cc2)c2cc(Cl)c3cccnc3c2O)CC1` (stereo not given), which AC50 is on record?
A: Its AC50 is 3610 nM.

Q: For `COc1ccc(C[C@H]2COC(=O)[C@@H]2Cc2ccc(OC3OC(CO)C(O)C(O)C3O)c(OC)c2)cc1OC` (stereo not given in full), which AC50 is on record?
A: Its AC50 is 4430 nM.

Q: How did the AC50 turn out when `CCOC(=O)c1cnc(-n2nc(C)cc2C)nc1NNc1cc(C)nc(-c2ccccc2)n1` was run?
A: Its AC50 is 3310 nM.

Q: With `NC(=O)c1ccc(N2CCN(S(=O)(=O)c3cccs3)CC2)c([N+](=O)[O-])c1` as the compound, how does the AC50 read?
A: Its AC50 is 305 nM.

Q: Which AC50 does the source give for `O=C(OCc1ccccc1)N(CCCCN(CCCNCc1ccccc1)C(=O)OCc1ccccc1)CCCNCc1ccccc1` here?
A: The AC50 was 5360 nM.

Q: How did the AC50 turn out when `COc1ccc(-c2coc3c(C(=O)NCc4ccc(OC)c(OC)c4)cccc23)c(C)c1` was run?
A: Its AC50 is 722 nM.

Q: With `Cc1cc2cc(CN(CC3CCCO3)C(=S)Nc3ccccc3)c(=O)[nH]c2cc1C` (stereo not given) as the compound, how does the AC50 read?
A: Its AC50 is 2910 nM.

Q: For `COc1ccccc1CNc1nc(NCc2ccccc2OC)c2sccc2n1`, which AC50 is on record?
A: The AC50 was 6330 nM.

Q: `COc1cccc(CN(C)C(=O)c2cc(COc3ccc4ncccc4c3)on2)c1` was tested. Which AC50 did it give?
A: Its AC50 is 1490 nM.

Q: How did the AC50 turn out when `C=C1C(=O)OC2CC1C(OC(C)=O)CC(C)=CCCC(C)=CCCC2(C)O` (stereo not given) was run?
A: The AC50 was 910 nM.

Q: How did the AC50 turn out when `Nc1nc(N)c2cc(CNc3ccc(Cl)c(Cl)c3)ccc2n1` was run?
A: The AC50 was 956 nM.

Q: With `CN(C)CC(C(=O)c1ccccc1)c1ccccc1` (stereo not given) as the compound, how does the AC50 read?
A: Its AC50 is 2800 nM.

Q: How did the AC50 turn out when `Cc1cc(C(=O)COC(=O)c2ccccc2O)c(C)n1Cc1cccs1` was run?
A: Its AC50 is 8990 nM.

Q: `Cc1nnc(NC(=O)c2nc(S(=O)(=O)Cc3ccccc3)ncc2Cl)s1` was tested. Which AC50 did it give?
A: The AC50 was 1340 nM.

Q: `CC(Sc1nc2ccccc2c(=O)n1C)C(=O)NC1CCCCC1C` (stereo not given) was tested. Which AC50 did it give?
A: Its AC50 is 3460 nM.

Q: `Cc1ccc(NC(=O)CSc2ccc3c(c2)OCCO3)c(O)c1` was tested. Which AC50 did it give?
A: The AC50 was 343 nM.

Q: `CCOc1cc(C(=O)CSc2nnc(CNc3ccc(Cl)cc3)o2)ccc1NC(=O)CC` was tested. Which AC50 did it give?
A: Its AC50 is 7730 nM.

Q: `O=C(NNC(=O)C(c1ccccc1)c1ccccc1)c1ccccn1` was tested. Which AC50 did it give?
A: Its AC50 is 2870 nM.

Q: With `CCC(=O)NC(c1ccco1)c1cc(Cl)c2cccnc2c1O` (stereo not given) as the compound, how does the AC50 read?
A: The AC50 was 1310 nM.

Q: Which AC50 does the source give for `Oc1cc(Nc2cccnc2)cc2cccnc12` here?
A: The AC50 was 2120 nM.

Q: With `Cc1ccc(C)c(S(=O)(=O)N2CCN(Cc3ccc(O)c4ncccc34)CC2)c1` as the compound, how does the AC50 read?
A: Its AC50 is 2840 nM.

Q: Which AC50 does the source give for `COc1cc(NC(=O)COc2cc(O)c3c(c2)OC(C)(C)CC3=O)cc(OC)c1OC` here?
A: The AC50 was 354 nM.

Q: For `OC(CNCCC1C=Nc2ccccc21)Cn1c2ccc(Cl)cc2c2cc(Cl)ccc21` (stereo not given), which AC50 is on record?
A: The AC50 was 5110 nM.

Q: For `Cc1cccc(C(C)(C)C)c1OCCN1CCCC1`, which AC50 is on record?
A: Its AC50 is 34200 nM.

Q: With `COc1ccc(CNC(=O)C(c2ccc(C)cc2)N(Cc2cccs2)C(=O)c2ccc3c(c2)OCCO3)cc1` (stereo not given) as the compound, how does the AC50 read?
A: Its AC50 is 8100 nM.

Q: How did the AC50 turn out when `COc1ccc(CNCCC(c2ccc(OC(C)C)cc2)c2ccccc2OC)cc1` (stereo not given) was run?
A: The AC50 was 3860 nM.

Q: How did the AC50 turn out when `Cc1cccnc1CN1CCN(C(=O)c2cc(COc3ccc4ncccc4c3)on2)CC1` was run?
A: The AC50 was 2100 nM.

Q: `Cc1cc(S(=O)(=O)NCc2ccncc2)c(C)cc1Br` was tested. Which AC50 did it give?
A: The AC50 was 1230 nM.

Q: Which AC50 does the source give for `Cc1ccc(-c2nc(NC(=O)c3nn(C)cc3[N+](=O)[O-])sc2C)cc1C` here?
A: Its AC50 is 2250 nM.

Q: How did the AC50 turn out when `COc1ccc(Nc2cc(C)nc(NCc3ccccc3)n2)cc1` was run?
A: The AC50 was 3900 nM.

Q: `COC(=O)[C@]1(C)CCC[C@@]2(C)C3CC[C@@]4(C)C[C@]3(CCC21)CC(=O)N4Cc1ccc(OC)cc1` (stereo not given in full) was tested. Which AC50 did it give?
A: Its AC50 is 8160 nM.

Q: `CCCCc1ccc(NC(=O)C(=O)NCCN2CCN(Cc3ccc([N+](=O)[O-])cc3)CC2)cc1` was tested. Which AC50 did it give?
A: Its AC50 is 1130 nM.

Q: Which AC50 does the source give for `Cc1cccc(CS(=O)(=O)c2ncc(Cl)c(C(=O)Nc3ccc(F)cc3)n2)c1` here?
A: Its AC50 is 550 nM.

Q: With `C=CCn1c(-c2ccc(S(=O)(=O)N3CCOCC3)cc2)csc1=Nc1ccccc1` as the compound, how does the AC50 read?
A: Its AC50 is 1520 nM.

Q: With `O=C1NCCOC(=O)[C@@H](Cc2ccc(F)cc2)CC/C=C/C[C@@H]1CC(=O)N(CCO)Cc1ccccc1` as the compound, how does the AC50 read?
A: Its AC50 is > 70000 nM (inactive).

Q: How did the AC50 turn out when `COc1ccccc1/C=C1\CCCC2=C1Nc1nnnn1C2c1ccccc1OC` (stereo not given) was run?
A: The AC50 was 36000 nM.

Q: `O=C(CSc1n[nH]c(-c2ccccn2)n1)Nc1cccc(Cl)c1` was tested. Which AC50 did it give?
A: Its AC50 is 2900 nM.

Q: How did the AC50 turn out when `CCCC(=O)NC(c1ccc(Cl)cc1)c1ccc2cccnc2c1O` (stereo not given) was run?
A: The AC50 was 937 nM.

Q: Which AC50 does the source give for `Cc1ccc(S(=O)(=O)N2C[C@@H]3CCCC[C@@H]3[C@@H](C)[C@H]2c2cn(Cc3ccccc3)c3ncccc23)cc1` here?
A: Its AC50 is 1920 nM.

Q: Which AC50 does the source give for `CCCCC(=O)NC(c1cccc([N+](=O)[O-])c1)c1ccc2cccnc2c1O` (stereo not given) here?
A: The AC50 was 1000 nM.

Q: How did the AC50 turn out when `Cn1c(=O)c2c(nc(NCc3ccco3)n2C/C=C/c2ccccc2)n(C)c1=O` was run?
A: Its AC50 is 1080 nM.

Q: `O=C(Nc1nc(-c2ccccn2)cs1)c1cccc(-n2cnnn2)c1` was tested. Which AC50 did it give?
A: Its AC50 is 2580 nM.

Q: Which AC50 does the source give for `COCC1CCN(C(=O)c2cc(COc3ccc4ncccc4c3)on2)CC1` here?
A: Its AC50 is 2700 nM.

Q: For `CCCCCCCCNC(C)C(O)c1ccc(SC(C)C)cc1` (stereo not given), which AC50 is on record?
A: Its AC50 is 3940 nM.

Q: With `Cc1ccc(Cn2c(=N)n(CC(O)COc3ccccc3)c3ccccc32)cc1` (stereo not given) as the compound, how does the AC50 read?
A: The AC50 was 2460 nM.

Q: For `CCN(c1ccccc1)S(=O)(=O)c1ccc(NC(=O)c2nc(S(C)(=O)=O)ncc2Cl)cc1`, which AC50 is on record?
A: The AC50 was 562 nM.

Q: With `CCCCC1(Cc2ccc([N+](=O)[O-])cc2)C(=O)N(c2ccccc2)N(c2ccccc2)C1=O` as the compound, how does the AC50 read?
A: Its AC50 is 10200 nM.

Q: With `Cc1cc(NC(=O)CCCS(=O)(=O)c2nc(-c3cccs3)cc(C(F)(F)F)n2)no1` as the compound, how does the AC50 read?
A: The AC50 was 1730 nM.
